In patent publication US20260125382A1, “COMPOUNDS FOR INHIBITING OR DEGRADING CDK2 AND/OR CDK9 AND MEDICINAL USE THEREOF” (KOREA RESEARCH INSTITUTE OF CHEMICAL TECHNOLOGY, priority 2022, published 2026):

Key:
CDK2 = target: T1, CDK2 (Homo sapiens, UniProt P24941); assay: CDK protein degradation activity (Western blotting), CDK2; assay type: cell-based; conditions: MDA-MB-231 cells, 16 hours, Western blot
T1 construct: endogenous in cells; host or cells: MDA-MB-231
Method in brief: (§1)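 MDA-MB-231 cells treated 16 h with compound at 100 nM, 1 μM or 10 μM, with DMSO as control. Lysates run on SDS-PAGE and immunoblotted for CDK2, CDK9 and tubulin; band levels quantified by densitometry.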

CDK9 = target: T2, CDK9 (Homo sapiens, UniProt P50750); assay: CDK protein degradation activity (Western blotting), CDK9; assay type: cell-based; conditions: MDA-MB-231 cells, 16 hours, Western blot
T2 construct: endogenous in cells; host or cells: MDA-MB-231
T2 sequence (P50750 whole entry): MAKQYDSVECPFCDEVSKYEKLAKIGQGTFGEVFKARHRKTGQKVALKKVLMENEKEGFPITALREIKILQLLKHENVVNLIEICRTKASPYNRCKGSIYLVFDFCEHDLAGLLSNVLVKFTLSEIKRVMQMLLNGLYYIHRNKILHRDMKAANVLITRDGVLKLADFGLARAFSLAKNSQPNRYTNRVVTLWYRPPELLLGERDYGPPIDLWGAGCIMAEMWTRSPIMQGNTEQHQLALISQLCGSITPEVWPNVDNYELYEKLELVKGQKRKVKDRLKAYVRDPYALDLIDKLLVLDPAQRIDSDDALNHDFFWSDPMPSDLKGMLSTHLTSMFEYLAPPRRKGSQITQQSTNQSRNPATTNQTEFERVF
Method in brief: as §1

Compound	Enzyme degradation CDK2 (% remaining) @ 0.1 μM (CDK2)	Enzyme degradation CDK2 (% remaining) @ 1 μM (CDK2)	Enzyme degradation CDK2 (% remaining) @ 10 μM (CDK2)	Enzyme degradation CDK9 (% remaining) @ 0.1 μM (CDK9)	Enzyme degradation CDK9 (% remaining) @ 1 μM (CDK9)	Enzyme degradation CDK9 (% remaining) @ 10 μM (CDK9)
O=C1CC[C@H](N2C(=O)c3ccc(NCC(=O)N4CC(N5CCC6(CC5)CC(N5CCN(c7ccc(Nc8ncnc9c8ncn9C8CC(NC(=O)Cc9ccccc9)C8)cc7)CC5)C6)C4)cc3C2=O)C(=O)N1 (stereo partly drawn) [Compound 278, N-((1s,3s)-3-(6-((4-(4-(7-(1-((2-(2,6-dioxopiperidin-3-yl)-1,3-dioxoisoindolin-5-yl)glycyl)azetidin-3-yl)-7-azaspiro[3.5]nonan-2-yl)piperazin-1-yl)phenyl)amino)-9H-purin-9-yl)cyclobutyl)-2-phenylacetamide]	50/50/50%	50/50/50%	50/50/50%	10%	0%	0%
O=C1CC[C@H](N2C(=O)c3cccc(N4CC(CN5CCC6(CC5)CC(N5CCN(c7ccc(Nc8ncnc9c8ncn9[C@H]8C[C@@H](NC(=O)Cc9ccccc9)C8)cc7)CC5)C6)C4)c3C2=O)C(=O)N1 [Compound 279, N-((1s,3s)-3-(6-((4-(4-(7-((1-(2-(2,6-dioxopiperidin-3-yl)-1,3-dioxoisoindolin-4-yl)azetidin-3-yl)methyl)-7-azaspiro[3.5]nonan-2-yl)piperazin-1-yl)phenyl)amino)-9H-purin-9-yl)cyclobutyl)-2-phenylacetamide]	50%	40%	40%	40%	10%	10%

More lines, now with the values ahead:

Enzyme degradation CDK2 (% remaining) @ 0.1 μM (CDK2)	Enzyme degradation CDK2 (% remaining) @ 1 μM (CDK2)	Enzyme degradation CDK2 (% remaining) @ 10 μM (CDK2)	Enzyme degradation CDK9 (% remaining) @ 0.1 μM (CDK9)	Enzyme degradation CDK9 (% remaining) @ 1 μM (CDK9)	Enzyme degradation CDK9 (% remaining) @ 10 μM (CDK9)	Compound
50%	30%	30%	50%	10%	10%	COc1ccc(C(=O)N2CC(CN3CCC4(CC3)CC(N3CCN(c5ccc(Nc6ncnc7c6ncn7[C@H]6C[C@@H](NC(=O)Cc7ccccc7)C6)cc5)CC3)C4)C2)cc1N1CCC(=O)NC1=O [Compound 280, N-((1s,3s)-3-(6-((4-(4-(7-((1-(3-(2,4-dioxotetrahydropyrimidin-1(2H)-yl)-4-methoxybenzoyl)azetidin-3-yl)methyl)-7-azaspiro[3.5]nonan-2-yl)piperazin-1-yl)phenyl)amino)-9H-purin-9-yl)cyclobutyl)-2-phenylacetamide]
30%	50%	50%	0/0/0%	0/0/0%	0/0/0%	O=C1CC[C@@H](c2ccc(OCC(=O)N3CCC(CN4CCC(c5ccc(Nc6ncnc7c6ncn7C6CC(NC(=O)Cc7ccccc7)C6)cc5)CC4)CC3)cc2)C(=O)N1 (stereo partly drawn) [Compound 281, N-((1s,3s)-3-(6-((4-(1-((1-(2-(4-(2,6-dioxopiperidin-3-yl)phenoxy)acetyl)piperidin-4-yl)methyl)piperidin-4-yl)phenyl)amino)-9H-purin-9-yl)cyclobutyl)-2-phenylacetamide]
10%	20%	20%	0/0/0%	0/0/0%	0/0/0%	O=C1CC[C@@H](c2cccc(OCC(=O)N3CCC(CN4CCC(c5ccc(Nc6ncnc7c6ncn7C6CC(NC(=O)Cc7ccccc7)C6)cc5)CC4)CC3)c2)C(=O)N1 (stereo partly drawn) [Compound 282, N-((1s,3s)-3-(6-((4-(1-((1-(2-(3-(2,6-dioxopiperidin-3-yl)phenoxy)acetyl)piperidin-4-yl)methyl)piperidin-4-yl)phenyl)amino)-9H-purin-9-yl)cyclobutyl)-2-phenylacetamide]
